Source: patent US9914736B2, “TrKA kinase inhibitors, compositions and methods thereof” (Merck Sharp & Dohme Corp., priority 2014, dated 2018)

What follows are compounds tested against human TrkA receptor (Homo sapiens (Human), UniProt P04629) (assay: DiscoverX PathHunter TrkA functional assay). Conditions: U2OS cells expressing human TrkA-ProLink, Shc1-EA and p75NTR; compound 1 h, then NGF at ~80% of maximal response for 3 h; luminescence.
Assay type: cell-based
Description: TrkA functional activity was measured using a DiscoverX PathHunter assay. In this assay, U2OS cells express the human TrkA receptor as a fusion with the weakly complementing fragment of B-galactosidase, which DiscoverX calls “Prolink (PK)”; additionally, Shc1 is fused with a larger fragment, which is called “Enzyme Acceptor (EA)”. Activation of the TrkA receptor, upon NGF addition, results in the kinase domain being phosphorylated, resulting in subsequent recruitment of Shc1-EA protein. That recruitment results in an active B-galactosidase enzyme that is detected by addition of a chemiluminescent substrate. The human p75^NTR protein was also expressed as a co-receptor for NGF.
All reagents were purchased from DiscoverX, except for the receptor agonists (NGF, BDNF, NT3) which were purchased from Peprotech. Cells were expanded and frozen into cryovials, and stored in the vapor phase of liquid nitrogen, and thawed immediately before use. Thawed cells were added to a 384-well plate at 7500 cells/well, and allowed to incubate overnight. Compound at various concentrations was added the following morning and allowed to incubate on cells for 1 h. Then, NGF was added at a concentration sufficient to elicit ˜80% of a maximal response and allowed to incubate for 3 h at ambient temperature. DiscoverX PathHunter detection reagent was then added and the plate was further incubated for 1 h in the dark. The plate was then read via luminescence on the Perkin Elmer Envision.

Chain of human TrkA receptor (P04629 33-796): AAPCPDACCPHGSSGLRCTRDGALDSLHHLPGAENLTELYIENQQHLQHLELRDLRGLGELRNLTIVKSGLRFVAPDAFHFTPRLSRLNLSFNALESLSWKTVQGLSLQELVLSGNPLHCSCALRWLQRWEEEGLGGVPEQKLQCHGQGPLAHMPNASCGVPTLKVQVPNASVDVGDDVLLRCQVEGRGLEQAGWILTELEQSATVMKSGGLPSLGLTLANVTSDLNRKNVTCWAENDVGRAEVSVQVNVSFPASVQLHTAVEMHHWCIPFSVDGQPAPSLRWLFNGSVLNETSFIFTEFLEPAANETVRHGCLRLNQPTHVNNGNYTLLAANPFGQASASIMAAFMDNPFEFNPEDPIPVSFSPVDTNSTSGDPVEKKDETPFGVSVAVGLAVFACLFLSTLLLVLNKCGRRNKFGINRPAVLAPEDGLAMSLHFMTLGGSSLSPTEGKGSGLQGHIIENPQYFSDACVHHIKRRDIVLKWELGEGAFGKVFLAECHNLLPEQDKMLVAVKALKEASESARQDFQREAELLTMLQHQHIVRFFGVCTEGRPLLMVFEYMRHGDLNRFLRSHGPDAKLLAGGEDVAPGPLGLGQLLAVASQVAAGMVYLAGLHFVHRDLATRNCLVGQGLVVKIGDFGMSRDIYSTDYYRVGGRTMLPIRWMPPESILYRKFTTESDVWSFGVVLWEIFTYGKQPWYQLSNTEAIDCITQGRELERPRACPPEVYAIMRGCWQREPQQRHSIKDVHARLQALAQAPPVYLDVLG

O=C(Nc1cc(CO)nn1-c1ccc(F)cc1)c1cc(-c2ncccn2)c(C(F)(F)F)cc1F [Compound 97, 2-fluoro-N-(1-(4-fluorophenyl)-3-(hydroxymethyl)-1H-pyrazol-5-yl)-5-(pyrimidin-2-yl)-4-(trifluoromethyl)benzamide] was tested. Which IC50 did it give?
The IC50 was 14 nM.

With Cn1ccc(-c2cc(C(=O)Nc3cc(Cc4ccc[nH]c4=O)nn3-c3ccc(F)cc3)ccc2C(F)(F)F)n1 [Compound 98, N-(1-(4-fluorophenyl)-3-((2-oxo-1,2-dihydropyridin-3-yl)methyl)-1H-pyrazol-5-yl)-3-(1-methyl-1H-pyrazol-3-yl)-4-(trifluoromethyl)benzamide] as the compound, how does the IC50 read?
Its IC50 is 3.8 nM.

How did the IC50 turn out when O=C(Nc1cc(-c2ccc(CCO)cc2)nn1-c1ccc(F)cc1)c1cc(-c2ncccn2)c(C(F)(F)F)cc1F [Compound 101, 2-fluoro-N-(1-(4-fluorophenyl)-3-(4-(2-hydroxyethyl)phenyl)-1H pyrazol-5-yl)-5-(pyrimidin-2-yl)-4-(trifluoromethyl)benzamide] was run?
The IC50 was 3.4 nM.

For Cn1ccc(-c2cc(C(=O)Nc3cc(Cc4nnnn4C)nn3-c3ccc(F)cc3)c(F)cc2C(F)(F)F)n1 [Compound 102, 2-fluoro-N-(1-(4-fluorophenyl)-3-((1-methyl-1H-tetrazol-5-yl)methyl)-1H-pyrazol-5-yl)-5-(1-methyl-1H-pyrazol-3-yl)-4-(trifluoromethyl)benzamide], which IC50 is on record?
The IC50 was 0.4 nM.

NCc1cccc(-c2cc(NC(=O)c3cc(-c4ncccn4)c(C(F)(F)F)cc3F)n(-c3ccc(F)cc3)n2)c1 [Compound 103, N-(3-(3-(aminomethyl)phenyl)-1-(4-fluorophenyl)-1H-pyrazol-5-yl)-2-fluoro-5-(pyrimidin-2-yl)-4-(trifluoromethyl)benzamide] was tested. Which IC50 did it give?
The IC50 was 2.4 nM.

For Cn1nnnc1Cc1cc(NC(=O)c2cc(-c3ncccn3)c(C(F)(F)F)cc2F)n(-c2ccc(F)cc2)n1 [Compound 104, 2-fluoro-N-(1-(4-fluorophenyl)-3-((1-methyl-1H-tetrazol-5-yl)methyl)-1H-pyrazol-5-yl)-5-(pyrimidin-2-yl)-4-(trifluoromethyl)benzamide], which IC50 is on record?
Its IC50 is 1.6 nM.

How did the IC50 turn out when Cn1ccc(-c2cc(C(=O)Nc3cc(Cc4ccc(=O)[nH]n4)nn3-c3ccc(F)cc3)c(F)cc2C(F)(F)F)n1 [Compound 105, 2-fluoro-N-(1-(4-fluorophenyl)-3-((6-oxo-1,6-dihydropyridazin-3-yl)methyl)-1H-pyrazol-5-yl)-5-(1-methyl-1H-pyrazol-3-yl)-4-(trifluoromethyl)benzamide] was run?
Its IC50 is 0.98 nM.

How did the IC50 turn out when O=C(Nc1sc(-c2cnn(CCO)c2)nc1-c1ccccc1)c1cc(-c2ncccn2)c(C(F)(F)F)cc1F [Compound 106, 2-fluoro-N-(2-(1-(2-hydroxyethyl)-1H-pyrazol-4-yl)-4-phenylthiazol-5-yl)-5-(pyrimidin-2-yl)-4-(trifluoromethyl)benzamide] was run?
The IC50 was 6.7 nM.

Cn1ccc(-c2cc(C(=O)Nc3c4c(nn3-c3ccccc3)CC(=O)NC4)c(F)cc2C(F)(F)F)n1 [Compound 108, 2-fluoro-5-(1-methyl-1H-pyrazol-3-yl)-N-(6-oxo-2-phenyl-4,5,6,7-tetrahydro-2H-pyrazolo[4,3-c]pyridin-3-yl)-4-(trifluoromethyl)benzamide] was tested. Which IC50 did it give?
The IC50 was 4.6 nM.

With Cn1ccc(-c2cc(C(=O)Nc3cn(CCO)nc3-c3ccccc3)c(F)cc2C(F)(F)F)n1 [Compound 109, 2-fluoro-N-(1-(2-hydroxyethyl)-3-phenyl-1H-pyrazol-4-yl)-5-(1-methyl-1H-pyrazol-3-yl)-4-(trifluoromethyl)benzamide] as the compound, how does the IC50 read?
The IC50 was 16 nM.

How did the IC50 turn out when NC(=O)OCc1cc(NC(=O)c2cc(-c3ncccn3)c(C(F)(F)F)cc2F)n(-c2ccc(F)cc2)n1 [Compound 110, (5-(2-fluoro-5-(pyrimidin-2-yl)-4-(trifluoromethyl)benzamido)-1-(4-fluorophenyl)-1H-pyrazol-3-yl)methyl carbamate] was run?
The IC50 was 7 nM.

With Cn1ccc(-c2cc(C(=O)Nc3cc(CC(N)=O)nn3-c3ccc(F)cc3)c(F)cc2C(F)(F)F)n1 [Compound 111, N-(3-(2-amino-2-oxoethyl)-1-(4-fluorophenyl)-1H-pyrazol-5-yl)-2-fluoro-5-(1-methyl-1H-pyrazol-3-yl)-4-(trifluoromethyl)benzamide] as the compound, how does the IC50 read?
Its IC50 is 2.4 nM.

With Cn1ccc(-c2cc(C(=O)Nc3cc(CN4C(=O)CNC4=O)nn3-c3ccc(F)cc3)c(F)cc2C(F)(F)F)n1 [Compound 112, N-(3-((2,5-dioxoimidazolidin-1-yl)methyl)-1-(4-fluorophenyl)-1H-pyrazol-5-yl)-2-fluoro-5-(1-methyl-1H-pyrazol-3-yl)-4-(trifluoromethyl)benzamide] as the compound, how does the IC50 read?
Its IC50 is 1.9 nM.

For O=C(Nc1cc(Cc2n[nH]c(=O)o2)nn1-c1ccc(F)cc1)c1cc(-c2ncccn2)c(C(F)(F)F)cc1F [Compound 113, 2-fluoro-N-(1-(4-fluorophenyl)-3-((5-oxo-4,5-dihydro-1,3,4-oxadiazol-2-yl)methyl)-1H-pyrazol-5-yl)-5-(pyrimidin-2-yl)-4-(trifluoromethyl)benzamide], which IC50 is on record?
Its IC50 is 15 nM.

For CNC(=O)Cc1cc(NC(=O)c2cc(-c3ccn(C)n3)c(C(F)(F)F)cc2F)n(-c2ccc(F)cc2)n1 [Compound 114, 2-fluoro-N-(1-(4-fluorophenyl)-3-(2-(methylamino)-2-oxoethyl)-1H-pyrazol-5-yl)-5-(1-methyl-1H-pyrazol-3-yl)-4-(trifluoromethyl)benzamide], which IC50 is on record?
The IC50 was 2.4 nM.
